# Data published in patent US20230257367A1, “NOVEL THYROID HORMONE BETA RECEPTOR AGONIST” (Chengdu Kanghong Pharmaceutical Co., Ltd., priority 2020, published 2023).
# What was measured:
# [1] = reported clinical data (VK2809 phase I; Eprotirome phase III); cited from earlier work
# [2] = preclinical toxicological studies; cited from earlier work
# [3] = biological target: T1, TRα (Homo sapiens, UniProt P10827); test: In vitro TRα cell transfection experiment (GAL4 luciferase reporter, HEK293T); type: cell-based
# T1 construct: host or cells: HEK293T
# T1 sequence (P10827 1-410 isoform P10827-2): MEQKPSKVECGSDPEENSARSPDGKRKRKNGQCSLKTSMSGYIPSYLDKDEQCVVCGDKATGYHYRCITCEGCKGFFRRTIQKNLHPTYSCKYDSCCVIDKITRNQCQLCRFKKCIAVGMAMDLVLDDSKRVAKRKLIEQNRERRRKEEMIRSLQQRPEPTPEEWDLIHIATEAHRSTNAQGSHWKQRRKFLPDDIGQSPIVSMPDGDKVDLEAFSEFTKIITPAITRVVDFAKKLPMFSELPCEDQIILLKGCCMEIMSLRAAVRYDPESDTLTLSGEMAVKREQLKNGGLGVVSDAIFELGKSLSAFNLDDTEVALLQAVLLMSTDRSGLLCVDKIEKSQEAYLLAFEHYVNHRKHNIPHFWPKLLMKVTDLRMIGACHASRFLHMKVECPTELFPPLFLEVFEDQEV
# T1 sequence (P19793 227-458 partner limits assumed): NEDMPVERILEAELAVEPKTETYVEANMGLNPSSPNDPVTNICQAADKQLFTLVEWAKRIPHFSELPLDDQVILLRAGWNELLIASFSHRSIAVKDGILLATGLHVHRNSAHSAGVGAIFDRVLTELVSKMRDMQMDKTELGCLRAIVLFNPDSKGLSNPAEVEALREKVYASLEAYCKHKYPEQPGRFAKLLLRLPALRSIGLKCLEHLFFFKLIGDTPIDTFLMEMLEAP
# [4] = system: primary hepatocyte; test: Hepatotoxicity detection in vitro (CellTiter-Glo); type: cell-based, human; conditions: primary hepatocytes; for IC50: Homo sapiens, Hepatocyte, cell viability after 48 hours; for Cell activity at the highest concentration (%): 48 hours, highest working solution concentration 600 μM
# Protocol: Information of Primary Hepatocyte
# Step 1: a test substance was prepared into a 200 mM DMSO stock solution, and then subjected to 3-times gradient continuous dilution by 7 concentrations, then 1.5 μL of each of the solutions of the 8 concentrations was added into 498.5 μL of incubation culture medium (with a composition referring to Table 5, directly mixed evenly) to prepare a working solution, and the incubation culture medium was preheated at 37° C. before preparation. DMSO was used as a solvent control. DMSO contents in the working solution and the solvent control were both 0.3 vol %. Concentrations of compounds were as follows:
# Step 2: Plate Inoculation and Cell Culture
# Second Step: Plate Inoculation and Culture of Cells
# 1) A tube of hepatocytes of the donor used in the experiment preserved at ultra-low temperature was taken, and the hepatocytes were ensured to be still frozen at low temperature before resuscitation. The hepatocytes were quickly placed in a water bath at 37° C. and gently shaken until all ice crystals were dispersed, and were transferred to a biosafety cabinet after spraying 70 vol % ethanol.
# 2) Contents of hepatocyte tubules were poured into a 50 mL centrifuge tube containing 50 mL of resuscitation culture medium (with a composition referring to Table 3, directly mixed evenly), and centrifuged at 80 g for 8 minutes. After centrifugation, the resuscitation culture medium was sucked out and an inoculation culture medium was added (with a composition referring to Table 4, directly mixed evenly). The cells were counted by AO/PI staining to obtain a cell suspension with a cell density of 0.2×10^6 cells per milliliter.
# 3) The cell suspension above was inoculated into a 96-well plate coated with collagen I, with 100 μL per well. The culture plate was placed in a 5% CO2 incubator with 95% relative humidity to culture for 4 hours to 6 hours.
# 4) After incubation for 4 hours to 6 hours, the state of the cells was observed under microscope. The culture plate was shaken gently, the inoculation culture medium was sucked out, and 100 μL of incubation culture medium was added into each well (with a composition referring to Table 5). A toxicity test could be carried out after culturing in the incubator for 18 hours to 20 hours.
# 5) Before administration, the morphology of the cells was observed under microscope. The culture medium in the culture plate was sucked out, and 100 μL of solvent control (DMSO), or test substance working solution was added into each well. Three parallel samples were tested under each condition.
# 6) The newly prepared working solution or solvent control was used for solution exchange every 24 hours after dosing.
# After the working solution acted for 48 hours, the morphology of the cells was observed under microscope for later use.
# Step 3: Cytotoxicity Detection
# 1) A CellTiter-Glo (Promega, article number G9243) reagent stored at −20° C. was melted in a water bath at 37° C.
# 2) After the cell culture plate obtained above was incubated for 48 hours, 50 μL of CellTiter-Glo solution was directly added into each experimental well.
# 3) The cell culture plate was vortexed at 400 rpm for 10 minutes, and incubated at room temperature to stabilize a luminescence signal.
# After 10 minutes 100 μL of reaction solution was sucked from each well and transferred to a new white nontransparent-bottom flat plate (Corning 96-well plate Cat No. 3917). The
# chemiluminescence value of each well was read by a microplate reader (a luminescence value of the white nontransparent-bottom flat plate was recorded as “a luminescence valueblank”; and a luminescence value of the solvent control was recorded as “a luminescence valuesolvent”).
# Cell viability(%)=[(luminescence valueto-be-tested compound−luminescence valueblank)/(luminescence valuesolvent−luminescence valueblank)]×100% […]
# [5] = biological target: T2, TRβ-LBD/RXRα (Homo sapiens, UniProt P10828); test: In vitro binding experiment (TR-FRET SRC2-2 co-activator peptide recruitment), TRβ; type: biochemical; conditions: 4 h incubation at room temperature
# T2 construct: TRβ-LBD (Invitrogen, PV4764) with a GST tag were used; purchased Invitrogen (TRβ-LBD); Pharmaron (RXRα) PV4764
# [6] = biological target: T3, TRα-LBD/RXRα (Homo sapiens, UniProt P10827); test: In vitro binding experiment (TR-FRET SRC2-2 co-activator peptide recruitment), TRα; type: biochemical; conditions: 4 h incubation at room temperature
# T3 construct: TRα-LBD (Invitrogen, PV4762), or TRβ-LBD (Invitrogen, PV4764) with a GST tag were used; purchased Invitrogen (TRα-LBD); Pharmaron (RXRα) PV4762
# [7] = biological target: T4, TRβ (Homo sapiens, UniProt P10828); test: In vitro TRβ cell transfection experiment (GAL4 luciferase reporter, HEK293T); type: cell-based
# T4 construct: host or cells: HEK293T
# T4 sequence (P10828 217-461 limits assumed): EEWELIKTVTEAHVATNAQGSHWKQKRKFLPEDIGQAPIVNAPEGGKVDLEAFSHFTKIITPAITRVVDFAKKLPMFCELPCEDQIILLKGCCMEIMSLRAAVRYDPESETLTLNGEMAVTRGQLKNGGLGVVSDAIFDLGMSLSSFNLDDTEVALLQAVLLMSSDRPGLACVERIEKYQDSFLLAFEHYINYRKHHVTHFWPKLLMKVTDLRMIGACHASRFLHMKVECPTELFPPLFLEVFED
# T4 sequence (P19793 227-458 partner limits assumed): T1 sequence (P19793 227-458 partner limits assumed)
# T3 sequence (P19793 whole entry partner, other chains not shown, the tested form may be a part): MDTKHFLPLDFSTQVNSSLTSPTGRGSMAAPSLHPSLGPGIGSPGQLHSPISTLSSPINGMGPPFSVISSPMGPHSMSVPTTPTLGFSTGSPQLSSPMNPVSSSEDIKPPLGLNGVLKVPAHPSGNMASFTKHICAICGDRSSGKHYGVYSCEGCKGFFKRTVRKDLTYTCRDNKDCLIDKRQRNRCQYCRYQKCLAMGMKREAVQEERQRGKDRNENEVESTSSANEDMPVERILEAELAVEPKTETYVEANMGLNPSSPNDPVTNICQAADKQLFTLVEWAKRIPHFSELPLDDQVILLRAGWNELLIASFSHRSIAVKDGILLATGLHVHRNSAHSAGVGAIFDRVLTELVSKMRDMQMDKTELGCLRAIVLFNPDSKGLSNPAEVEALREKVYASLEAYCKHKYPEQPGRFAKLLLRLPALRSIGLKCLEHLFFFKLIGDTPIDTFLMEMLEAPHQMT
# T2 sequence (P19793 whole entry partner, other chains not shown, the tested form may be a part): as above
EC50 [3] [µM],EC50 [5] [µM],EC50 [6] [µM],EC50 [7] [µM],SMILES,liver enzyme [1],cartilage damage [2],IC50 [4] [nM],Cell activity at the highest concentration (%) [4] [%]
,,,,CC(C)c1cc(Oc2c(Br)cc(NC(=O)CC(=O)O)cc2Br)ccc1O [Eprotirome],increase in liver enzyme,cartilage injury was also found,,
,,,,Cc1cc(OCP2(=O)OCC[C@@H](c3cccc(Cl)c3)O2)cc(C)c1Cc1ccc(O)c(C(C)C)c1 (stereo partly shown) [VK2809],Liver enzyme increase,cartilage damage was found,,
0.826,0.031,0.144,0.089,CC(C)c1nc(Oc2c(Cl)cc(-n3nc(C#N)c(=O)[nH]c3=O)cc2Cl)ncc1O [KH03],,,264000,0.0421
0.269,0.054,1.47,0.032,O=c1cnn(-c2cc(Cl)c(Oc3ncc(O)c(Cc4ccccc4)n3)c(Cl)c2)c(=O)[nH]1 [KH10],,,160000,0.0142
